This passage reports melting point results from a melting point compilation (Tetko et al.; mined from patent text by program, amines drawn as free bases though some values may be those of a salt).

The structures appear in SMILES notation.

In the case of `C=C(C)CC(NC=O)(C(=O)OCC)C(=O)OCC`, the melting point turned out to be 72 °C.

On to `CCCCCCCCCCCCCCCCn1c(-c2ccc(Cl)c(N)c2)nnc1-c1ccc(Cl)c(N)c1`, for which the melting point was 88 to 90 °C.

With `Cn1c(=O)c2[nH]c(C=Cc3cccc([N+](=O)[O-])c3)nc2n(C)c1=O`, the melting point was more than 300 °C.

Regarding `COC(=O)c1cc(OCc2ccccc2)nn1C(C)C`, the melting point fell in the range of 73 to 74 °C.

Turning to `CCN(CC)CCOc1cccc2c1c1cccc(Cl)c1n2Cc1ccccc1`, the melting point lay within 73.5 to 75 °C.

`Cc1cc2oc(NC(=O)Nc3c(C)cccc3C)c(-c3ccccc3Cl)c2cc1C` gave a melting point of 252 to 254 °C.

Turning to `CC(C)(C)OC(=O)N1C[C@@H]2Cc3cc4ccccc4n3C[C@@H]2C1` (relative stereo), the melting point lay within 143 to 144 °C.

As to `CC(C)CCCC(C)C1CCC2C3CC=C4CC(OCCI)CCC4(C)C3CCC12C` (stereo not given), the melting point fell in the range of 86 to 88 °C.

Consider `CC(C)C[C@H](NC(=O)OCc1ccccc1)C(=O)N[C@@H](CC(N)=O)C(=O)NC(Cc1ccccc1)C(O)C(Cc1ccccc1)NC(=O)OC(C)(C)C` (stereo not given in full), for which the melting point was in the range of 192 to 194 °C.

`CCCC(C=NNC(=O)OC)c1ccc(Cl)cc1Cl` (stereo not given): the melting point was in the range of 165 to 166 °C.

On to `COc1ccc2cc(C(OC)(OC)C(C)OS(=O)(=O)c3ccc(C)cc3)ccc2c1` (stereo not given), for which the melting point was 148 to 150 °C.

For the molecule `CC(C)N1C(=O)NC(c2ccc3c(c2)OCO3)c2cc3c(cc21)OCO3` (stereo not given), the melting point fell in the range of 87 to 89 °C.

Consider `COc1ccc(-c2ccc(C(N)=O)c(Cl)c2)cc1`, for which the melting point was 207 to 208 °C.

The molecule `Cc1cccc(NC(=O)OC(C)(C)C)c1CNc1cccn2c(C=O)c(C)nc12` returned a melting point of 210 to 212 °C.

In turn, `COCc1cc(O)c2cccc(OC)c2n1` returned a melting point of 193 to 195 °C.

Take `COC(=O)/C=C(C)/C=C/C(F)=C(C)/C=C/C1(C)C=C(C)OC1C` (stereo not given): the melting point fell in the range of 122 to 126 °C.

In turn, `CSC1=C([N+](=O)[O-])CN(Cc2ccccc2)CN1` came in with a melting point of 173 to 174 °C.

`N#CCc1cccc2oc(Br)c(-c3ccccc3)c12`: the melting point lay within 131 to 133 °C.

Regarding `Cc1c(C(=O)c2ccc(Cl)cc2)oc2cccc(O)c12`, the melting point is 238 to 241 °C.

Consider `CC(=O)Oc1ccc(C=Cc2ccc3ccccc3n2)cc1`, for which the melting point fell in the range of 127 to 128 °C.

`CCS(=O)(=O)Nc1nc(CN2CCN(C(c3ccccc3)c3ccccc3)CC2)cs1` registered a melting point of 159 to 160 °C.

In turn, `O=[N+]([O-])c1ccc(S(=O)(=O)NCc2ccccc2C(F)(F)F)c([N+](=O)[O-])c1` yielded a melting point of 157 to 158 °C.

As for `CC(C)(CO)NC(=O)Cc1ccc2c(c1)C(=O)c1sccc1CO2`, the melting point fell in the range of 162 to 163 °C.

The molecule `N#Cc1cccc(C(=O)NCc2cccc3c2CN(C2CCC(=O)NC2=O)C3=O)c1` (stereo not given) registered a melting point of 282 to 284 °C.

On to `CC(=O)n1nc(C(=O)NC2CN(C)CCN(Cc3ccccc3)C2)c2ccccc21` (stereo not given), for which the melting point lay in the range of 166 to 168 °C.

On to `Nc1cc2nc(N)c(-c3ccccc3Cl)cc2cn1`, for which the melting point amounted to 175 °C.

The molecule `Fc1ccc(-c2cc(Cl)c3ccccc3n2)cc1` showed a melting point of 90 to 93 °C.

Consider `COc1ccc(-c2nnn(-c3c(Cl)cc(Cl)cc3I)c2N)cc1`, for which the melting point was in the range of 72.5 to 73.6 °C.

For the molecule `Oc1cccc2c1CC1CNCC2C1` (stereo not given), the melting point fell in the range of 106 to 108 °C.

In turn, `CC12CC(F)C3C4CCC(=O)C=C4CC(CCCCCCl)C3C1CCC2=O` (stereo not given) had a melting point of 51 to 53 °C.

`C=CCN1CCCC1CNC(C)=O` (stereo not given) yielded a melting point of 42 °C.

`Cc1ccc(Oc2ccc(-n3cc(C(=O)O)cn3)cc2)c(O)c1` gave a melting point of 231 to 233 °C.

Molecule `COC(=O)c1cc(CCN(C)CCCC(C#N)(c2ccc(OC)c(OC)c2)C(C)C)cc(C(=O)OC)c1` (stereo not given) registered a melting point of 100 to 103 °C.

The molecule `CN1CC=C(c2c[nH]c3ccc(OS(=O)(=O)c4ccccc4)cc23)CC1` had a melting point of 186 to 190 °C.

Regarding `COc1cc(N)ccc1N1CCN(CCCNc2c(C)c(=O)n(C)c(=O)n2C)CC1`, the melting point lay in the range of 146 to 148 °C.
